# Measured values reported in patent US20030064960A1, “Medicine for inducing osteogenesis” (priority 1999, published 2003).
# How the values were obtained:
# [1] = hyaluronic acid with a molecular weight of 20,000 to 60,000, at a concentration of 0.5 mg/ml; cited from earlier work
# [2] = tested on: RC-I,II cell (cultured cell derived from rat calvaria); assay: Osteogenesis inducing activity on cultured cell derived from rat calvaria (northern blotting of ALP, COL1 and OC genes); format: cell-based
# Experimental: (1) Preparation of Cultured Cell Derived from Rat Calvaria
# Cultured cell derived from rat calvaria was isolated from Wister rats (obtained from sankyo-rabo) of three days old by following method.
# The rats were killed, decapitated and their calvarias were picked out. The tissue was flaked by a tweezer and suspended into a solution for enzyme treatment, containing 0.04% of EDTA, collagenase (crude type 1A: SIGMA: 0.1%) and trypsin (0.05%). The sample was treated in the enzyme solution for 30 min under temperature of 37° C. Then, the enzyme solution was harvested and cells extricated into the enzyme solution was harvested by centrifugation (RC-I). The enzyme solution was added again and digested at 37° C. for 30 min. Cells extricated into the enzyme solution was designated as RC-II.
# The RC-I and RC-II thus obtained were mixed and used for following experiments. The cell mixture of RC-I and RC-II was designated as RC-I,II cell in following description. […] The RC-I and RC-II described above hardly expressed alkaline phosphatase (ALP), type 1 collagen (COL1) and osteocarcin (OC) gene. The genes described above are used for marker genes of osteoblast (T. R. Arnett et al, Methods in Bone Biology, 1988, Chapman & Hall).
# (3) Estimation of Osteogenesis Inducing Activity of the Lipid-bound Glycosaminoglycan
# HA-PE produced as described above was dissolved in hank's solution at concentration of 5 μg/ml and 2 ml of hank's solution containing HA-PE was poured into polystyrene culture dish with diameter of 10 cm. The dish was coated by settling the dish for 16 hours at 4° C. The dish treated by hank's solution without HA-PE was used for control.
# The RC-I,II cell suspension, prepared as described above, was poured on the dish at the density of 1×10^4 cells/cm^2. The cell was cultured in α-minimum eagle medium (MEM: GIBCO) solution containing 1% anti-biotics, anti-mycoplasma solution (containing 50 μg/ml ascorbic acid and 5 mM β-glycerophosphate, GIBCO) and 10% fatal bovine serum (FBS: GIBCO).
# At the time just after cell reached to confluent, one week after confluent and two weeks after confluent, total RNA of the cell was extracted by guanidine-phenol-chloroform method. The expression of ALP, COL1 and OC genes was analyzed by northern blotting method. The expression of these genes are used as an indicator of osteoblast differentiation. In FIG. 1, Et-Br indicates control sample obtained by staining of ribosomal RNA by ethydium bromide. Moreover, digitalized result calculated from northern blotting of FIG. 1 by Quantity One program (TOYOBO) was shown in FIG. 2 as a value standardized against the control described above.
# [3] = RC-I,II cell cultured in dish coated with 5 μg/ml HA-PE, northern blotting at confluent, one and two weeks after confluent, vs dish treated without HA-PE
Substance,osteogenesis induction activity [1],"induction of osteocyte differentiation ([2]; RC-I,II cell cultured in HA-PE coated dish (5 μg/ml))","expression of ALP gene [2, 3]","expression of COL1 gene [2, 3]","expression of OC gene [2, 3]"
hyaluronic acid,osteogenesis induction activity,–,–,–,–
L-(α-phosphatidyl)ethanolamine dipalmytoyl conjugated hyaluronic acid [HA-PE],–,significant induction of osteocyte differentiation,predominant increase,predominant increase,predominant increase
